SMILES strings stand for the structures.

The experiment concerns the target WDR5 (Homo sapiens, UniProt P61964). Description: Competition-based fluorescence polarization anisotropy assay. The conditions noted are these: binding to WDR5; displacement of FITC-labeled small molecule probe (analogous to Example J2 or HCH-25) or peptide probe FITC-AHx-SEEEIDVVSV; pH 6.0; Ki converted from IC50. In short, it runs like this: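 Ki values derive from displacement of either a fluorescent small-molecule probe or a FITC-peptide probe from WDR5, monitored by fluorescence polarization. Assay run at pH 6.0 in 200 mM phosphate with 300 mM NaCl, 0.5 mM TCEP and 0.1% Chaps.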
For orientation: Fluorescence polarisation rises when a labelled molecule tumbles more slowly, as on binding a larger partner.
The Ki is a measure of affinity in units of concentration, obtained from inhibition or displacement. Low readings indicate a stronger hold on the target, high ones a looser hold on the target. Take `O=C(NCC1CCCO1)c1cc(OC(F)(F)F)cc(NS(=O)(=O)c2cc(Br)ccc2O)c1O` (stereo not drawn) [Example J165, 3-((5-Bromo-2-hydroxyphenyl)sulfonamido)-2-hydroxy-N-((tetrahydrofuran-2-yl)methyl)-5-(trifluoromethoxy)benzamide]: the Ki was determined as 420 nM.

Turning to `O=C(NCC1CCOC1)c1cc(OC(F)(F)F)cc(NS(=O)(=O)c2cc(Br)ccc2O)c1O` (stereo not drawn) [Example J166, 3-((5-Bromo-2-hydroxyphenyl)sulfonamido)-2-hydroxy-N-((tetrahydrofuran-3-yl)methyl)-5-(trifluoromethoxy)benzamide], the Ki worked out at 680 nM.

As for `O=C(NC1CCOC1)c1cc(OC(F)(F)F)cc(NS(=O)(=O)c2cc(Br)ccc2O)c1O` (stereo not drawn) [Example J167, 3-((5-Bromo-2-hydroxyphenyl)sulfonamido)-2-hydroxy-N-(tetrahydrofuran-3-yl)-5-(trifluoromethoxy)benzamide], the affinity, expressed as Ki, was 360 nM.

For the compound `O=C(N[C@H]1CCOC1)c1cc(OC(F)(F)F)cc(NS(=O)(=O)c2cc(Br)ccc2O)c1O` [Example J168, (S)-3-((5-Bromo-2-hydroxyphenyl)sulfonamido)-2-hydroxy-N-(tetrahydrofuran-3-yl)-5-(trifluoromethoxy)benzamide], the affinity corresponds to a Ki of 460 nM.

As for `O=C(c1cc(OC(F)(F)F)cc(NS(=O)(=O)c2cc(Br)ccc2O)c1O)N1CCC[C@H]1CO` [Example J169, (S)-5-Bromo-2-hydroxy-N-(2-hydroxy-3-(2-(hydroxymethyl)pyrrolidine-1-carbonyl)-5-(trifluoromethoxy)phenyl)benzenesulfonamide], the Ki worked out at 1710 nM.

Regarding `O=C(c1cc(OC(F)(F)F)cc(NS(=O)(=O)c2cc(Br)ccc2O)c1O)N1CCC[C@@H]1CO` [Example J170, (R)-5-Bromo-2-hydroxy-N-(2-hydroxy-3-(2-(hydroxymethyl)pyrrolidine-1-carbonyl)-5-(trifluoromethoxy)phenyl)benzenesulfonamide], the Ki was determined as 2840 nM.

`COC[C@@H]1CCCN1C(=O)c1cc(OC(F)(F)F)cc(NS(=O)(=O)c2cc(Br)ccc2O)c1O` [Example J171, (S)-5-Bromo-2-hydroxy-N-(2-hydroxy-3-(2-(methoxymethyl)pyrrolidine-1-carbonyl)-5-(trifluoromethoxy)phenyl)benzenesulfonamide] showed a Ki of 1040 nM.

On to `COC[C@H]1CCCN1C(=O)c1cc(OC(F)(F)F)cc(NS(=O)(=O)c2cc(Br)ccc2O)c1O` [Example J172, (R)-5-Bromo-2-hydroxy-N-(2-hydroxy-3-(2-(methoxymethyl)pyrrolidine-1-carbonyl)-5-(trifluoromethoxy)phenyl)benzenesulfonamide], for which the affinity corresponds to a Ki of 680 nM.

`O=C(c1cc(OC(F)(F)F)cc(NS(=O)(=O)c2cc(Br)ccc2O)c1O)N1CC[C@@H](O)C1` [Example J173, (R)-5-Bromo-2-hydroxy-N-(2-hydroxy-3-(3-hydroxypyrrolidine-1-carbonyl)-5-(trifluoromethoxy)phenyl)benzenesulfonamide] had a Ki of 1560 nM.

For the compound `COC1CCN(C(=O)c2cc(OC(F)(F)F)cc(NS(=O)(=O)c3cc(Br)ccc3O)c2O)C1` (stereo not drawn) [Example J174, 5-Bromo-2-hydroxy-N-(2-hydroxy-3-(3-methoxypyrrolidine-1-carbonyl)-5-(trifluoromethoxy)phenyl)benzenesulfonamide], the Ki amounted to 4690 nM.

As to `CNC(=O)c1cc(OC(F)(F)F)cc(NS(=O)(=O)c2cc(Cl)ccc2O)c1O` [Example J175, 3-((5-Chloro-2-hydroxyphenyl)sulfonamido)-2-hydroxy-N-methyl-5-(trifluoromethoxy)benzamide], the affinity, expressed as Ki, was 810 nM.

`COC[C@@H]1CCCN1C(=O)c1cc(OC(F)(F)F)cc(NS(=O)(=O)c2cc(Cl)ccc2O)c1O` [Example J176, (S)-5-Chloro-2-hydroxy-N-(2-hydroxy-3-(2-(methoxymethyl)pyrrolidine-1-carbonyl)-5-(trifluoromethoxy)phenyl)benzenesulfonamide]: the Ki came to 7010 nM.

The compound `COC[C@H]1CCCN1C(=O)c1cc(OC(F)(F)F)cc(NS(=O)(=O)c2cc(Cl)ccc2O)c1O` [Example J177, (R)-5-Chloro-2-hydroxy-N-(2-hydroxy-3-(2-(methoxymethyl)pyrrolidine-1-carbonyl)-5-(trifluoromethoxy)phenyl)benzenesulfonamide] showed a Ki of 4860 nM.

`O=C(NCC1CCCO1)c1cc(OC(F)(F)F)cc(NS(=O)(=O)c2cc(Cl)ccc2O)c1O` (stereo not drawn) [Example J178, 3-((5-Chloro-2-hydroxyphenyl)sulfonamido)-2-hydroxy-N-((tetrahydrofuran-2-yl)methyl)-5-(trifluoromethoxy)benzamide] displayed a Ki of 700 nM.

Consider `COc1ccc(Br)cc1S(=O)(=O)Nc1cc(OC(F)(F)F)cc(C(=O)NCC2CCCO2)c1O` (stereo not drawn) [Example J179, 3-((5-Bromo-2-methoxyphenyl)sulfonamido)-2-hydroxy-N-((tetrahydrofuran-2-yl)methyl)-5-(trifluoromethoxy)benzamide], for which the Ki was determined as 740 nM.

As for `COC[C@@H]1CCCN1C(=O)c1cc(OC(F)(F)F)cc(NS(=O)(=O)c2cc(Br)ccc2OC)c1O` [Example J180, (S)-5-Bromo-N-(2-hydroxy-3-(2-(methoxymethyl)pyrrolidine-1-carbonyl)-5-(trifluoromethoxy)phenyl)-2-methoxybenzenesulfonamide], the affinity corresponds to a Ki of 4020 nM.

The compound `COC[C@H]1CCCN1C(=O)c1cc(OC(F)(F)F)cc(NS(=O)(=O)c2cc(Br)ccc2OC)c1O` [Example J181, (R)-5-bromo-N-(2-hydroxy-3-(2-(methoxymethyl)pyrrolidine-1-carbonyl)-5-(trifluoromethoxy)phenyl)-2-methoxybenzenesulfonamide] displayed a Ki of 5880 nM.

In turn, `CNC(=O)c1cc(OC(F)(F)F)cc(NS(=O)(=O)c2cc(Br)cc3cccnc23)c1O` [Example J182, 3-((6-Bromoquinoline)-8-sulfonamido)-2-hydroxy-N-methyl-5-(trifluoromethoxy)benzamide] displayed a Ki of 1060 nM.

`COc1ccc(Br)cc1S(=O)(=O)Nc1cc(-c2ccccc2)cc(C(=O)O)c1O` [Example J183, 5-((5-Bromo-2-methoxyphenyl)sulfonamido)-4-hydroxy-[1,1′-biphenyl]-3-carboxylic acid]: the affinity, expressed as Ki, was 2380 nM.

With `Cc1c(-c2ccccc2)cc(NS(=O)(=O)c2cc(Br)ccc2O)c(O)c1C(=O)O` [Example J184, 5-((5-Bromo-2-hydroxyphenyl)sulfonamido)-4-hydroxy-2-methyl-[1,1′-biphenyl]-3-carboxylic acid], affinity was put at a Ki of 1620 nM.

The compound `Cc1c(C2CC2)cc(NS(=O)(=O)c2cc(Br)ccc2O)c(O)c1C(=O)O` [Example J185, 3-((5-Bromo-2-hydroxyphenyl)sulfonamido)-5-cyclopropyl-2-hydroxy-6-methylbenzoic acid] displayed a Ki of 580 nM.

The compound `COc1ccc(Br)cc1S(=O)(=O)Nc1cc(C(=O)O)cc(C2=CCOCC2)c1` [Example J193, 3-((5-Bromo-2-methoxyphenyl)sulfonamido)-5-(3,6-dihydro-2H-pyran-4-yl)benzoic acid] had a Ki of 69200 nM.

Consider `COc1ccc(Br)cc1S(=O)(=O)Nc1cc(N2CCOCC2)cc(C(=O)O)c1O` [Example J194, 3-((5-Bromo-2-methoxyphenyl)sulfonamido)-2-hydroxy-5-morpholinobenzoic acid], for which the Ki was 10300 nM.

On to `O=C(O)c1cc(-c2ccsc2)cc(NS(=O)(=O)c2cc(Br)ccc2O)c1O` [Example J195, 3-((5-Bromo-2-hydroxyphenyl)sulfonamido)-2-hydroxy-5-(thiophen-3-yl)benzoic acid], for which the Ki was found to be 940 nM.

On to `O=C(O)c1cc(-c2cccs2)cc(NS(=O)(=O)c2cc(Br)ccc2O)c1O` [Example J196, 3-((5-bromo-2-hydroxyphenyl)sulfonamido)-2-hydroxy-5-(thiophen-2-yl)benzoic acid], for which the affinity, expressed as Ki, was 1070 nM.

Turning to `Cc1ccsc1-c1cc(NS(=O)(=O)c2cc(Br)ccc2O)c(O)c(C(=O)O)c1` [Example J197, 3-((5-Bromo-2-hydroxyphenyl)sulfonamido)-2-hydroxy-5-(3-methylthiophen-2-yl)benzoic acid], the affinity corresponds to a Ki of 1930 nM.

In turn, `Cc1sccc1-c1cc(NS(=O)(=O)c2cc(Br)ccc2O)c(O)c(C(=O)O)c1` [Example J198, 3-((5-Bromo-2-hydroxyphenyl)sulfonamido)-2-hydroxy-5-(2-methylthiophen-3-yl)benzoic acid] had a Ki of 1100 nM.

`O=C(O)c1c(O)c(NS(=O)(=O)c2cc(Br)ccc2O)cc(-c2ccsc2)c1F` [Example J199, 3-((5-Bromo-2-hydroxyphenyl)sulfonamido)-6-fluoro-2-hydroxy-5-(thiophen-3-yl)benzoic acid]: the Ki was 640 nM.

For the compound `COc1ccc(Br)cc1S(=O)(=O)Nc1cc(Cl)cc(NC(C)=O)c1O` [Example J200, N-(3-((5-Bromo-2-methoxyphenyl)sulfonamido)-5-chloro-2-hydroxyphenyl)acetamide], affinity was put at a Ki of 68800 nM.

In turn, `CC(C)(C)c1cc(NS(=O)(=O)c2cc(Br)ccc2O)c(O)c(C(=O)O)c1` [Example J201, 3-((5-Bromo-2-hydroxyphenyl)sulfonamido)-5-(tert-butyl)-2-hydroxybenzoic acid] displayed a Ki of 700 nM.

Compound `CNC(=O)c1cc(C(C)(C)C)cc(NS(=O)(=O)c2cc(Br)ccc2O)c1O` [Example J202, 3-((5-Bromo-2-hydroxyphenyl)sulfonamido)-5-(tert-butyl)-2-hydroxy-N-methylbenzamide] came in with a Ki of 1080 nM.

`N#CC1(c2cc(NS(=O)(=O)c3cc(Br)ccc3O)c(O)c(C(=O)O)c2)CCC1` [Example J203, 3-((5-Bromo-2-hydroxyphenyl)sulfonamido)-5-(1-cyanocyclobutyl)-2-hydroxybenzoic acid] gave a Ki of 40 nM.

In the case of `COc1ccc(Br)cc1S(=O)(=O)Nc1cc(C2(C#N)CCC2)cc(C(=O)O)c1O` [Example J205, 3-((5-Bromo-2-methoxyphenyl)sulfonamido)-5-(1-cyanocyclobutyl)-2-hydroxybenzoic acid], the Ki is 50 nM.

Values taken from US12398097B2, “WDR5-MYC inhibitors” (Vanderbilt University, priority 2019, dated 2025).
